According to patent publication US6734177B2, “Certain salts of discodermolide acid, pharmaceutical compositions containing them and their use in treating tumors” (Novartis AG, priority 2001, dated 2004):
Like-named read-outs stand apart in the source and are kept apart here.

How the values were obtained:
[1] = tested on: 1A9 ovarian carcinoma; experiment: Anchorage Dependent Growth Monolayer Assay (ADGMA), MTT, 3-day exposure; type: cell-based; conditions: Homo sapiens, read-out: IC50 (average±S.E.M.) 1A9
Text: (§1) As indicated above, all of the compounds of formula I are anti-tumor agents and are, therefore, useful in inhibiting the growth of various lymphomas, sarcomas, carcinomas, myelomas, and leukemia cell lines. […] This assay was adapted from the 60 cell line assay used by the National Cancer Institute (NCI) with the following modifications:
(§2) 1) four cell lines representative for the important tumor types, viz., MIP 101 colon carcinoma, HCT 116 colon carcinoma, 1A9 ovarian carcinoma and 1A9PTX22 ovarian carcinoma were utilized; and
(§3) 2) a tetrazolium derivative, viz., MTT, was utilized to determine cell density.
(§4) The ADGMA compares the number of viable cells following a 3-day exposure to a test compound relative to a number of cells present at the time the test compound was added. […] The absorbence at 540 nm (A540) of the formazan derivative is proportional to the number of viable cells. The IC50 for a test compound is the concentration of compound required to reduce the final cell number to 50% of the final control cell number. If cell proliferation is inhibited, the assay further defines compounds as cytostatic (cell number after 3-day compound incubation>cell number at time of compound addition) or cytotoxic (cell number after 3-day compound incubation<cell number at time of compound addition).
(§5) The HCT 116 colon carcinoma cell line was obtained from the American Type Culture Collection (ATCC, Rockville, Md.). The MIP 101 colon carcinoma was obtained from Dr. Robert Kramer (Bristol Meyers Squibb) and was previously described (Niles R M, Wilhelm S A, Steele G D JR, Burke B, Christensen T, Dexter D, O'Brien M J, Thomas P, Zamcheck N. Isolation and characterization of an undifferentiated human colon carcinoma cell line (MIP-101). Cancer Invest. 1987;5(6):545-52.). The 1A9 and the 1A9PTX22 ovarian tumor cell lines were obtained from Dr. Tito Fojo, Medicine Branch, Division of Clinical Sciences, National Cancer Institute, National Institutes of Health, Bethesda, Md. 20892. The 1A9 is a clone of the ovarian carcinoma cell line, A2780 (Giannakakou P, Sackett, D L, Kang Y -K, Zhan Z, Buters J T M, Fojo T, Poruchynsky M S. Paclitaxel-resistant human ovarian cancer cells have mutant β-tubulins that impaired paclitaxel-driven polymerization. J. Biol. Chem. 1997, 272(4):17118-17125). The 1A9PTX22 subline was isolated as an individual clone from the 1A9 cell line in a single step selection by exposure to 5 ng/mL paclitaxel in the presence of 5 μg/mL of verapamil. All cell lines were used between passages 4-20 following thawing. MIP 101 colon carcinoma, HCT 116 colon carcinoma, 1A9 ovarian carcinoma and 1A9PTX22 ovarian carcinoma cell lines are maintained and plated in RPMI 1640 medium containing 10% fetal bovine serum.
(§6) Cells are trypsinized and counted using hemacytometer to determine cell concentrations. Cells were then plated in their respective maintenance media (200 μL/well) in 96-well plates at the following concentrations: MIP 101, 2000 cells/well, HCT 116, 2000 cells/well, 1A9, 10000 cells/well, and 1A9PTX22, 10000 cells/well. […] Initial cell densities, assayed one day after plating, are roughly 0.10-0.20 A540 absorbence units greater than the media blank. Ninety six well plates were seeded on day 0 and the test compounds are added on day 1. A “time 0” plate was created that received media only in row A and one cell line/row in rows B-E. The “time 0” plate was processed 24 hours after plating (at the time when drugs were added to experimental plates), as follows: To each well 5 microliters of the MTT stock solution (0.5 mg/ml in PBS) was added to each well and then incubated for three hours at 37 degrees C., 5% CO2, in a humidified environment. Media was then carefully and completely removed. Plates were allowed to dry in the dark. DMSO (dimethylsulfoxide) was added to each well (100 μl/well) and plates were placed on an orbital shaker for 2 hours. […]

[2] = tested on: 1A9PTX22 ovarian carcinoma; experiment: as above; type: cell-based; conditions: Homo sapiens, 1A9/ptx-22, 72 h, read-out: IC50 (average±S.E.M.) 1A9PTX22
Text: as §1, §2, §3, §4, §5, §6

[3] = tested on: HCT 116 colon carcinoma; experiment: as above; type: cell-based; conditions: Homo sapiens, read-out: IC50 (average±S.E.M.) HCT116
Text: as §1, §2, §3, §4, §5, §6

[4] = tested on: MIP 101 colon carcinoma; experiment: as above; type: cell-based; conditions: Homo sapiens, 72 h, read-out: IC50 (average±S.E.M.) MIP101
Text: as §1, §2, §3, §4, §5, §6

[5] = Body weight change of athymic nude mice in the hollow fiber model; type: in vivo; conditions: Paclitaxel 15 mg/kg i.v. daily for 5 days, Ex. 1 45 mg/kg i.v. once; for Δ Mean % Body Weight, Exp. 1: Experiment 1; for Δ Mean % Body Weight, Exp. 2: Experiment 2
Procedure: Outbred athymic (nu/nu) female mice (“Chrls:Athymic Nude-nu”, Charles River Laboratories, Wilmington, Mass.) were anesthetized with ip injections of Ketamine/Xylazine (150 mg/kg, and 12 mg/kg body weight, respectively). For the subcutaneous implantation an 11-gauge trocar containing one or two hollow fibers was inserted through an incision made with scissors at the nape of the neck of an animal, and fibers were released by retracting the trocar while depressing the plunger. This procedure was repeated until all four hollow fibers were implanted. One wound clip was used to close the skin incision. After the surgery each animal received a single, subcutaneous injection of 0.4 mg/kg butorphenol to relieve any potential pain. Animals recovered from the anesthesia on a heating pad, before returning to their cages.
One day after the implantation (4 hollow fibers/animal, each hollow fiber containing one cell line: HCT 116, MIP 101, 1A9, and 1A9PTX22) animals were randomly sorted into five groups of six mice/group. The first group was sacrificed, hollow fibers were retrieved, and processed according to a published procedure, to determine the number of viable cells in each fiber (T0.)
The remaining groups were treated as follows:
Group 1: Example 1, 45 mg/kg, iv, once.
Group 2: Vehicle for Example 1 (16.7% Cremophor EL, 8.3% ethanol, 75% D5W), iv, once.
Group 3: Paclitaxel, 15 mg/kg, iv, daily for 5 days.
Group 4: Vehicle for paclitaxel (12.5% Cremophor EL, 12.5% ethanol, 75% D5W) iv, daily for 5 days.
On day 7 all animals were sacrificed, and hollow fibers were retrieved and processed according to a published procedure, to determine the number of viable cells in each fiber (T—for fibers from animals treated with experimental compounds, C—for fibers from animals treated with corresponding vehicles). Antitumor activity was expressed as % Mean ΔT/Mean ΔC [comparing cell growth for treatment group to vehicle control group, where % Mean ΔT/Mean ΔC=(Mean T−Mean T0/Mean C−Mean T0)×100%]. Regressions were calculated using the formula: (1−Mean T/Mean T0)×100%. Statistical significance of the results was uniformly evaluated using a two-tailed Student's t-test, as recommended by a statistician, following analysis of our representative experiments (Colin Goodal, statistical consultant to Novartis, personal communication).

[6] = tested on: 1A9PTX22 cell line; conditions: 1A9PTX22 vs parental 1A9; cited from earlier work

Structure (SMILES)	IC50 ([1]; 1A9, 72 h)	IC50 [2]	IC50 ([3]; HCT-116, 72 h)	IC50 [4]	Δ Mean % Body Weight, Exp. 1 [5]	Δ Mean % Body Weight, Exp. 2 [5]	IC50 ([1]; 72 h, 1A9 cells, 3-day exposure, MTT)	IC50 ([2]; 1A9PTX22 cells, 3-day exposure, MTT)	IC50 ([3]; 72 h, HCT 116 cells, 3-day exposure, MTT)	IC50 ([4]; MIP 101 cells, 3-day exposure, MTT)	Resistance to paclitaxel of 1A9PTX22 relative to parental 1A9 [6]
C=C/C=C\[C@H](C)[C@H](OC(N)=O)[C@@H](C)[C@@H](O)[C@@H](C)C/C(C)=C\[C@H](C)[C@@H](O)[C@@H](C)/C=C\[C@@H](O)C[C@H](O)[C@H](C)[C@H](O)[C@@H](C)C(=O)[O-].[Na+] [Ex. 1, (2R,3S,4S,5S,7S,8Z,10S,11S,12S,13Z,16S,17S,18S,19S,20S,21Z)-19-[(aminocarbonyl)oxy]-3,5,7,11,17-pentahydroxy-2,4,10,12,14,16,18,20-octamethyl-8,13,21,23-tetracosatetraenoic acid, sodium salt]	100 ± 40 nM	200 ± 90 nM	50 ± 20 nM	300 ± 10 nM	Exp. 1: None	Exp. 2: None	–	–	–	–	–
CC(=O)O[C@H]1C(=O)[C@@]2(C)[C@H]([C@H](OC(=O)c3ccccc3)[C@]3(O)C[C@H](OC(=O)[C@H](O)[C@@H](NC(=O)c4ccccc4)c4ccccc4)C(C)=C1C3(C)C)[C@]1(OC(C)=O)CO[C@@H]1C[C@@H]2O [paclitaxel]	–	–	–	–	Exp. 1: None	Exp. 2: None	47 ± 7 nM	1 ± 1 nM	0.3 ± 0.2 nM	200 ± 60 nM	24 fold
